According to PMC5635695, “More than Enzymes That Make or Break Cyclic Di-GMP—Local Signaling in the Interactome of GGDEF/EAL Domain Proteins of Escherichia coli” (mBio, 2017):

Target: T1, CdgI GGDEF domain (GGDEF^CdgI) (Escherichia coli, UniProt P76236)
T1 construct: isolated cytoplasmic GGDEF domain (degenerate A-site, intact I-site), N-terminal MASE4 membrane domain removed; N-terminal His6 tag kept; pQE30xa in E. coli Fi8202
Experiment: UV cross-linking with [alpha-32P]c-di-GMP, SDS-PAGE
Format: binding
Settings: 42 nM radiolabelled c-di-GMP, competition with unlabelled c-di-GMP; labelled compound

T1 sequence (P76236 315-491): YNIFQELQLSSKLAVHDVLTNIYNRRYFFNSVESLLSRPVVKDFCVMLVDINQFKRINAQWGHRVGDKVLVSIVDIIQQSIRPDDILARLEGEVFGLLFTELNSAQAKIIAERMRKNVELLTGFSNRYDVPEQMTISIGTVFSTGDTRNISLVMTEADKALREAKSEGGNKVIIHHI

In the case of `Nc1nc2c(ncn2[C@@H]2O[C@@H]3COP(=O)(O)O[C@H]4[C@@H](O)[C@H](n5cnc6c(=O)[nH]c(N)nc65)O[C@@H]4COP(=O)(O)O[C@H]3[C@H]2O)c(=O)[nH]1` [c-di-GMP], the “UV cross-linking with [alpha-32P]c-di-GMP, SDS-PAGE” value is reported as “We observed that purified CdgI could indeed bind c-di-GMP”.
